Numbers after ± are expanded uncertainties.
Assay: xn = mol fraction of the nth substance listed
Settings: 100 kPa, Liquid; for viscosity: Falling or rolling sphere viscometry; for speed of sound: Frequency=3 MHz, Single path-length method; for mass density: Vibrating tube method

CC#N [acetonitrile] + CN(C)C=O
Settings	mass density [kg/m3]	speed of sound [m/s]	viscosity [mPa·s]
298.15 K, x2 = 0	776.714 ± 2	1278.5 ± 2.2	0.34
298.15 K, x2 = 0.0989	802.565 ± 2	1302.5 ± 2.2	0.4
298.15 K, x2 = 0.1916	826.376 ± 2	1322 ± 2.2	0.44 ± 0.2
298.15 K, x2 = 0.2925	844.614 ± 2	1339.6 ± 2.2	0.48 ± 0.2
298.15 K, x2 = 0.3932	865.725 ± 2	1361.6 ± 2.2	0.54 ± 0.2
298.15 K, x2 = 0.5029	880.889 ± 2	1377.5 ± 2.2	0.61 ± 0.2
298.15 K, x2 = 0.6002	895.421 ± 2	1395.9 ± 2.2	0.65 ± 0.2
298.15 K, x2 = 0.6931	907.546 ± 2	1411.4 ± 2.2	0.69 ± 0.2
298.15 K, x2 = 0.7926	922.026 ± 2	1429.2 ± 2.2	0.75 ± 0.2
298.15 K, x2 = 0.8996	932.676 ± 2	1442.8 ± 2.2	0.79 ± 0.2
303.15 K, x2 = 0	771.289 ± 2	1258.4 ± 2.2	0.32
303.15 K, x2 = 0.0989	797.299 ± 2	1282.7 ± 2.2	0.39
303.15 K, x2 = 0.1916	821.229 ± 2	1302.3 ± 2.2	0.42 ± 0.2
303.15 K, x2 = 0.2925	839.435 ± 2	1320.1 ± 2.2	0.46 ± 0.2
303.15 K, x2 = 0.3932	860.639 ± 2	1342.2 ± 2.2	0.51 ± 0.2
303.15 K, x2 = 0.5029	875.938 ± 2	1358.1 ± 2.2	0.57 ± 0.2
303.15 K, x2 = 0.6002	890.518 ± 2	1376.6 ± 2.2	0.61 ± 0.2
303.15 K, x2 = 0.6931	902.756 ± 2	1392 ± 2.2	0.65 ± 0.2
303.15 K, x2 = 0.7926	917.22 ± 2	1409.9 ± 2.2	0.7 ± 0.2
303.15 K, x2 = 0.8996	927.901 ± 2	1423.3 ± 2.2	0.75 ± 0.2
308.15 K, x2 = 0	765.833 ± 2	1238.2 ± 2.2	0.31
308.15 K, x2 = 0.0989	792.024 ± 2	1262.9 ± 2.2	0.37
308.15 K, x2 = 0.1916	816.008 ± 2	1282.5 ± 2.2	0.4
308.15 K, x2 = 0.2925	834.219 ± 2	1300.5 ± 2.2	0.44 ± 0.2
308.15 K, x2 = 0.3932	855.56 ± 2	1322.6 ± 2.2	0.49 ± 0.2
308.15 K, x2 = 0.5029	870.924 ± 2	1338.6 ± 2.2	0.54 ± 0.2
308.15 K, x2 = 0.6002	885.607 ± 2	1357.2 ± 2.2	0.58 ± 0.2
308.15 K, x2 = 0.6931	897.887 ± 2	1372.6 ± 2.2	0.61 ± 0.2
308.15 K, x2 = 0.7926	912.402 ± 2	1390.5 ± 2.2	0.66 ± 0.2
308.15 K, x2 = 0.8996	923.153 ± 2	1404 ± 2.2	0.71 ± 0.2
313.15 K, x2 = 0	760.339 ± 2	1218 ± 2.2	0.3
313.15 K, x2 = 0.0989	786.729 ± 2	1243 ± 2.2	0.35
313.15 K, x2 = 0.1916	810.757 ± 2	1262.8 ± 2.2	0.39
313.15 K, x2 = 0.2925	829.087 ± 2	1280.9 ± 2.2	0.42 ± 0.2
313.15 K, x2 = 0.3932	850.487 ± 2	1303.2 ± 2.2	0.46 ± 0.2
313.15 K, x2 = 0.5029	865.854 ± 2	1319.2 ± 2.2	0.51 ± 0.2
313.15 K, x2 = 0.6002	880.698 ± 2	1337.9 ± 2.2	0.55 ± 0.2
313.15 K, x2 = 0.6931	893.049 ± 2	1353.3 ± 2.2	0.58 ± 0.2
313.15 K, x2 = 0.7926	907.663 ± 2	1371.3 ± 2.2	0.63 ± 0.2
313.15 K, x2 = 0.8996	918.366 ± 2	1384.7 ± 2.2	0.69 ± 0.2
318.15 K, x2 = 0	754.815 ± 2	1197.9 ± 2.2	0.29
318.15 K, x2 = 0.0989	781.363 ± 2	1223.3 ± 2.2	0.33
318.15 K, x2 = 0.1916	805.527 ± 2	1243.1 ± 2.2	0.37
318.15 K, x2 = 0.2925	823.852 ± 2	1261.3 ± 2.2	0.4
318.15 K, x2 = 0.3932	845.354 ± 2	1283.7 ± 2.2	0.44 ± 0.2
318.15 K, x2 = 0.5029	860.76 ± 2	1299.9 ± 2.2	0.49 ± 0.2
318.15 K, x2 = 0.6002	875.703 ± 2	1318.6 ± 2.2	0.52 ± 0.2
318.15 K, x2 = 0.6931	888.143 ± 2	1334 ± 2.2	0.55 ± 0.2
318.15 K, x2 = 0.7926	902.79 ± 2	1352.1 ± 2.2	0.59 ± 0.2
318.15 K, x2 = 0.8996	913.57 ± 2	1365.5 ± 2.2	0.63 ± 0.2
323.15 K, x2 = 0	749.253 ± 2	1177.8 ± 2.2	0.28
323.15 K, x2 = 0.0989	776.028 ± 2	1203.5 ± 2.2	0.32
323.15 K, x2 = 0.1916	800.222 ± 2	1223.4 ± 2.2	0.35
323.15 K, x2 = 0.2925	818.614 ± 2	1241.9 ± 2.2	0.38
323.15 K, x2 = 0.3932	840.213 ± 2	1264.4 ± 2.2	0.42 ± 0.2
323.15 K, x2 = 0.5029	855.738 ± 2	1280.6 ± 2.2	0.46 ± 0.2
323.15 K, x2 = 0.6002	870.738 ± 2	1299.4 ± 2.2	0.5 ± 0.2
323.15 K, x2 = 0.6931	883.209 ± 2	1314.8 ± 2.2	0.53 ± 0.2
323.15 K, x2 = 0.7926	897.991 ± 2	1332.9 ± 2.2	0.56 ± 0.2
323.15 K, x2 = 0.8996	908.741 ± 2	1346.3 ± 2.2	0.6 ± 0.2
